Test results from ChEMBL document CHEMBL1138303, “Putative bioactive conformations of amide linked cyclic myelin basic protein peptide analogues associated with experimental autoimmune encephalomyelitis” (J Med Chem, 2007).
Calls of active or inactive are those of the source. The rule behind the calls is not given here. Peptide text beside a SMILES is read from it.

Columns and labels:
[1] = Solubility per 100 uL of the compound; format: physicochemical
[2] = organism: Rattus norvegicus; assay: Inhibition of encephalitogenic MBP(74-85)-induced encephalomyelitis in Lewis rat; format: functional, organism-based

SMILES | Solubility [1] | Activity [2]
CC[C@H](C)[C@@H]1NC(=O)[C@H](CC(N)=O)NC(=O)[C@H](CCCCN)NC(=O)[C@H](Cc2ccccc2)NC(=O)[C@H](Cc2ccccc2)NC(=O)[C@H](Cc2c[nH]cn2)NC(=O)[C@H](C(C)C)NC(=O)[C@@H]2CCCN2C(=O)[C@H]([C@@H](C)O)NC(=O)[C@H](CCCNC(=N)N)NC(=O)[C@@H]2CCCN2C(=O)[C@H]([C@@H](C)O)NC(=O)[C@H](C(C)C)NC1=O | 16 mg | –
CC[C@H](C)[C@@H]1NC(=O)[C@H](CC(N)=O)NC(=O)[C@H](C)NC(=O)[C@H](Cc2ccccc2)NC(=O)[C@H](Cc2ccccc2)NC(=O)[C@H](Cc2c[nH]cn2)NC(=O)[C@H](C(C)C)NC(=O)[C@@H]2CCCN2C(=O)[C@H]([C@@H](C)O)NC(=O)[C@H](CCCNC(=N)N)NC(=O)[C@H](C)NC(=O)[C@H]([C@@H](C)O)NC(=O)[C@H](C(C)C)NC1=O (HELM PEPTIDE1{A.N.I.V.T.A.R.T.P.V.H.F.F}$PEPTIDE1,PEPTIDE1,1:R1-13:R2$$$V2.0) | 1.15 mg | Active
CC[C@H](C)[C@@H]1NC(=O)[C@H](CC(N)=O)NC(=O)[C@H](CCCNC(=N)N)NC(=O)[C@H](Cc2ccccc2)NC(=O)[C@H](Cc2ccccc2)NC(=O)[C@H](Cc2c[nH]cn2)NC(=O)[C@H](C(C)C)NC(=O)[C@@H]2CCCN2C(=O)[C@H]([C@@H](C)O)NC(=O)[C@H](CCCNC(=N)N)NC(=O)[C@H](C)NC(=O)[C@H]([C@@H](C)O)NC(=O)[C@H](C(C)C)NC1=O (HELM PEPTIDE1{A.R.T.P.V.H.F.F.R.N.I.V.T}$PEPTIDE1,PEPTIDE1,1:R1-13:R2$$$V2.0) | 16.25 mg | Active
